Source: patent US8932597B2 (priority 2008, dated 2015)

The substances below were run on anti-M2 human monoclonal antibody Z3G1.
Format: binding

In order of rising “Signal (peptides that show specific binding to Z3G1)” value:
1. 1577 (SLDTEVETPIRNEWGCRCNDSSD; epitope peptide) [compound 1577]  1505
2. 1584 (SLLIEVETPIRNEWGCRCNDSSD; epitope peptide) [compound 1584]  1899
3. 1567 (HLLTEVETPIRNEWGCRCNDSSD; epitope peptide) [compound 1567]  1946
4. 1534 (SLLCEVETPIRNEWGCRCNDSSD; epitope peptide) [compound 1534]  2161
5. 1511 (CLTEVETPIRLLTEVETPICETPIRNEWG; epitope peptide; MISC_FEATURE (1)..(1): C is an attachment site for a CLIP; MISC_FEATURE (10)..(10): R is an attachment site for a CLIP; MISC_FEATURE (11)..(11): L is an attachment site for a CLIP; MISC_FEATURE (29)..(29): G is an attachment site for a CLIP) [compound 1511]  2175
6. 1564 (ELLTEVETPIRNEWGCRCNDSSD; epitope peptide) [compound 1564]  2201
7. 1555 (SLLTCVGSLLCEV; epitope peptide) [compound 1555]  2264
8. 634 (SLLTEVETPIRNEWGCRANDSSD; epitope peptide) [compound 634]  2265
9. 1561 (SLLCEVGCLCTCV; epitope peptide) [compound 1561]  2331
10. 1513 (CEVETPIRNELLTEVETPICETPIRNEWG; epitope peptide; MISC_FEATURE (1)..(1): C is an attachment site for a CLIP; MISC_FEATURE (10)..(10): E is an attachment site for a CLIP; MISC_FEATURE (11)..(11): L is an attachment site for a CLIP; MISC_FEATURE (29)..(29): G is an attachment site for a CLIP) [compound 1513]  2466
11. 1514 (CVETPIRNEWLLTEVETPICETPIRNEWG; epitope peptide; MISC_FEATURE (1)..(1): C is an attachment site for a CLIP; MISC_FEATURE (10)..(10): W is an attachment site for a CLIP; MISC_FEATURE (11)..(11): L is an attachment site for a CLIP; MISC_FEATURE (29)..(29): G is an attachment site for a CLIP) [compound 1514]  2575

In order of falling “Signal (peptides that bind to Z3G1)” value:
1. 1336 (MSLLCEVGMSCLTEV; epitope peptide) [compound 1336]  2846
2. 1307 (MSLLTEVNTPIRNEWGCRCN; epitope peptide) [compound 1307]  2807
3. 1281 (MSLLEEVETPIRNEWGCRCN; epitope peptide) [compound 1281]  2805
4. 1276 (MSLQTEVETPIRNEWGCRCN; epitope peptide) [compound 1276]  2792
5. 1389 (SLLCEVETPIRNCWG; epitope peptide) [compound 1389]  2789
6. 1274 (MSLNTEVETPIRNEWGCRCN; epitope peptide) [compound 1274]  2787
7. 1260 (MNLLTEVETPIRNEWGCRCN; epitope peptide) [compound 1260]  2733
8. 1306 (MSLLTEVLTPIRNEWGCRCN; epitope peptide) [compound 1306]  2714
9. 1342 (MSLLTCVGMSLLCEV; epitope peptide) [compound 1342]  2712
10. 1298 (MSLLTTVETPIRNEWGCRCN; epitope peptide) [compound 1298]  2699
11. 1309 (MSLLTEVRTPIRNEWGCRCN; epitope peptide) [compound 1309]  2668
12. 1259 (MMLLTEVETPIRNEWGCRCN; epitope peptide) [compound 1259]  2666
13. 1254 (MGLLTEVETPIRNEWGCRCN; epitope peptide) [compound 1254]  2635
14. 1299 (MSLLTEVATPIRNEWGCRCN; epitope peptide) [compound 1299]  2633
15. 1277 (MSLRTEVETPIRNEWGCRCN; epitope peptide) [compound 1277]  2554
16. 1310 (MSLLTEVWTPIRNEWGCRCN; epitope peptide) [compound 1310]  2546
17. 1312 (MSLLTEVEWPIRNEWGCRCN; epitope peptide) [compound 1312]  2541
18. 1296 (MSLLYEVETPIRNEWGCRCN; epitope peptide) [compound 1296]  2464
19. 1384 (CLLCEVETPIRNEWG; epitope peptide) [compound 1384]  2388
20. 1395 (SLLCEVCTPIRNEWG; epitope peptide) [compound 1395]  2384
21. 1308 (MSLLTEVPTPIRNEWGCRCN; epitope peptide) [compound 1308]  2380
22. 1366 (SLLCEVECPIRNE; epitope peptide) [compound 1366]  2377
23. 1340 (MSCLTEVGMSLLCEV; epitope peptide) [compound 1340]  2341
24. 1362 (SLLCEVETPIRCE; epitope peptide) [compound 1362]  2307
25. 1367 (SLLCEVCTPIRNE; epitope peptide) [compound 1367]  2283
26. 1445 (CVETPIRNEWLLTEVETPICLTEVETPIR; epitope peptide; MISC_FEATURE (1)..(1): C is an attachment site for a CLIP; MISC_FEATURE (10)..(10): W is an attachment site for a CLIP; MISC_FEATURE (11)..(11): L is an attachment site for a CLIP; MISC_FEATURE (29)..(29): R is an attachment site for a CLIP) [compound 1445]  2280
27. 1339 (MCLLTEVGMSLLCEV; epitope peptide) [compound 1339]  2234
28. 1443 (CTEVETPIRNLLTEVETPICLTEVETPIR; epitope peptide; MISC_FEATURE (1)..(1): C is an attachment site for a CLIP; MISC_FEATURE (10)..(10): N is an attachment site for a CLIP; MISC_FEATURE (11)..(11): L is an attachment site for a CLIP; MISC_FEATURE (29)..(29): R is an attachment site for a CLIP) [compound 1443]  2213
29. 1383 (CLLTEVECPIRNEWG; epitope peptide) [compound 1383]  2157
30. 1269 (MSVLTEVETPIRNEWGCRCN; epitope peptide) [compound 1269]  2111
31. 1258 (MLLLTEVETPIRNEWGCRCN; epitope peptide) [compound 1258]  2091
32. 1495 (CTEVETPIRNLLTEVETPICVETPIRNEW; epitope peptide; MISC_FEATURE (1)..(1): C is an attachment site for a CLIP; MISC_FEATURE (10)..(10): N is an attachment site for a CLIP; MISC_FEATURE (11)..(11): L is an attachment site for a CLIP; MISC_FEATURE (29)..(29): W is an attachment site for a CLIP) [compound 1495]  2088
33. 1442 (CLTEVETPIRLLTEVETPICLTEVETPIR; epitope peptide; MISC_FEATURE (1)..(1): C is an attachment site for a CLIP; MISC_FEATURE (10)..(10): R is an attachment site for a CLIP; MISC_FEATURE (11)..(11): L is an attachment site for a CLIP; MISC_FEATURE (29)..(29): R is an attachment site for a CLIP) [compound 1442]  2057
34. 1364 (SLLCEVETPCRNE; epitope peptide) [compound 1364]  2035
35. 1474 (CVETPIRNEWSLLTEVETPCEVETPIRNE; epitope peptide; MISC_FEATURE (1)..(1): C is an attachment site for a CLIP; MISC_FEATURE (10)..(10): W is an attachment site for a CLIP; MISC_FEATURE (11)..(11): S is an attachment site for a CLIP; MISC_FEATURE (29)..(29): E is an attachment site for a CLIP) [compound 1474]  1986
36. 1266 (MYLLTEVETPIRNEWGCRCN; epitope peptide) [compound 1266]  1960
37. 1343 (CSCLCEVGMSLLCEV; epitope peptide) [compound 1343]  1945
38. 1363 (SLLCEVETPICNE; epitope peptide) [compound 1363]  1921
39. 1335 (MCLLTEVGMSCLTEV; epitope peptide) [compound 1335]  1869
40. 1462 (CETPIRNEWGLLTEVETPICTEVETPIRN; epitope peptide; MISC_FEATURE (1)..(1): C is an attachment site for a CLIP; MISC_FEATURE (10)..(10): G is an attachment site for a CLIP; MISC_FEATURE (11)..(11): L is an attachment site for a CLIP; MISC_FEATURE (29)..(29): N is an attachment site for a CLIP) [compound 1462]  1710
41. 1386 (SLCCEVETPIRNEWG; epitope peptide) [compound 1386]  1603
42. 1398 (SLLTEVETPIRNECC; epitope peptide) [compound 1398]  1493
